± gives the expanded uncertainty stated by the source.
How the values were obtained:
[1] = Liquid, Custom Made Vibrating Tube Densimeter
[2] = xn = mol fraction of the nth substance listed; details: Liquid, Custom Made Vibrating Tube Densimeter, x1 = 1

C=C1CC[C@H]2C[C@@H]1C2(C)C [(1S,5S)-6,6-dimethyl-2-methylenebicyclo[3.1.1]heptane]
mass density [kg/m3], [1]
Details	283.15 K	298.15 K	313.15 K	328.15 K	343.15 K	358.15 K
20000 kPa	891.3 ± 0.2	880.2 ± 0.2	869.3 ± 0.2	858.2 ± 0.2	847.7 ± 0.2	837 ± 0.2
25000 kPa	894.2 ± 0.2	883.3 ± 0.2	872.6 ± 0.2	861.7 ± 0.2	851.4 ± 0.2	840.9 ± 0.2
30000 kPa	897 ± 0.2	886.3 ± 0.2	875.7 ± 0.2	865.2 ± 0.2	855 ± 0.2	844.8 ± 0.2
35000 kPa	899.9 ± 0.2	889.3 ± 0.2	878.8 ± 0.2	868.7 ± 0.2	858.6 ± 0.2	848.7 ± 0.2
40000 kPa	902.6 ± 0.2	892.2 ± 0.2	882 ± 0.2	872.2 ± 0.2	862.1 ± 0.2	852.6 ± 0.2

C=C(C)[C@H]1CC=C(C)CC1 [(R)-1-methyl-4-(1-methylethenyl)cyclohexene]
mass density [kg/m3], [1]
Details	283.15 K	298.15 K	313.15 K	328.15 K	343.15 K	358.15 K
20000 kPa	862 ± 0.8	851.5 ± 0.8	841 ± 0.7	830.5 ± 0.7	820.1 ± 0.7	810.2 ± 0.7
25000 kPa	864.9 ± 0.8	854.5 ± 0.8	844.2 ± 0.7	833.8 ± 0.7	823.7 ± 0.7	813.9 ± 0.7
30000 kPa	867.7 ± 0.8	857.6 ± 0.8	847.2 ± 0.8	837.2 ± 0.7	827.3 ± 0.7	817.6 ± 0.7
35000 kPa	870.4 ± 0.8	860.9 ± 0.8	850.3 ± 0.8	840.4 ± 0.7	831.1 ± 0.7	821.3 ± 0.7
40000 kPa	873.3 ± 0.8	863.4 ± 0.8	853.3 ± 0.8	843.8 ± 0.7	834.6 ± 0.7	824.8 ± 0.7

C=C(C)[C@H]1CC=C(C)CC1 [(R)-1-methyl-4-(1-methylethenyl)cyclohexene] + C=C1CC[C@H]2C[C@@H]1C2(C)C
mass density [kg/m3], [2]
Details	283.15 K	298.15 K	313.15 K	328.15 K	343.15 K	358.15 K
20000 kPa	862 ± 1.1	851.5 ± 1.1	841 ± 1.1	830.5 ± 1.1	820.1 ± 1.1	810.2 ± 1.1
25000 kPa	864.9 ± 1.1	854.5 ± 1.1	844.2 ± 1.1	833.8 ± 1.1	823.7 ± 1.1	813.9 ± 1.1
30000 kPa	867.7 ± 1.1	857.6 ± 1.1	847.2 ± 1.1	837.2 ± 1.1	827.3 ± 1.1	817.6 ± 1.1
35000 kPa	870.4 ± 1.1	860.9 ± 1.1	850.3 ± 1.1	840.4 ± 1.1	831.1 ± 1.1	821.3 ± 1.1
40000 kPa	873.3 ± 1.2	863.4 ± 1.1	853.3 ± 1.1	843.8 ± 1.1	834.6 ± 1.1	824.8 ± 1.1

From the NIST ThermoML archive (doi:10.1016/j.jct.2011.12.013)
